Data from patent publication US20110294772A1, “USE OF CYCLOSQUARAMIDE COMPOUNDS AS ANTI-TUMOUR AGENTS” (priority 2008, published 2011).
Several values for one entry are separate records, joined by “and”; a condition that tells them apart may be missing. Equal entries are not always repeated.

Tests used:
[1] = biological target: CDK5/p25NCK (Homo sapiens, UniProt Q00535); assay: in vitro kinase assay; assay type: biochemical
Description: (§1) Specifically, against a panel of 210 kinases representative of the human kinome, the compounds tested inhibited by […] the activity of 25 of them in in Vitro assays (Table 1).
(§2) The IC50 was determined for the most sensitive kinases to compound 10, obtaining values for said parameter, largely in the micromolar range. For this purpose, the 25 kinases inhibited more than 80% by the compound in in vitro assays were selected.

[2] = biological target: CDK7/CycH/Mat1 (Homo sapiens, UniProt P50613); assay: in vitro kinase assay; assay type: biochemical
Description: as §1, §2

[3] = biological target: CHK1 (Homo sapiens, UniProt O14757); assay: in vitro kinase assay; assay type: biochemical
Description: as §1, §2

[4] = biological target: CSK (Homo sapiens, UniProt P41240); assay: in vitro kinase assay; assay type: biochemical
CSK, sequence (P41240 whole entry): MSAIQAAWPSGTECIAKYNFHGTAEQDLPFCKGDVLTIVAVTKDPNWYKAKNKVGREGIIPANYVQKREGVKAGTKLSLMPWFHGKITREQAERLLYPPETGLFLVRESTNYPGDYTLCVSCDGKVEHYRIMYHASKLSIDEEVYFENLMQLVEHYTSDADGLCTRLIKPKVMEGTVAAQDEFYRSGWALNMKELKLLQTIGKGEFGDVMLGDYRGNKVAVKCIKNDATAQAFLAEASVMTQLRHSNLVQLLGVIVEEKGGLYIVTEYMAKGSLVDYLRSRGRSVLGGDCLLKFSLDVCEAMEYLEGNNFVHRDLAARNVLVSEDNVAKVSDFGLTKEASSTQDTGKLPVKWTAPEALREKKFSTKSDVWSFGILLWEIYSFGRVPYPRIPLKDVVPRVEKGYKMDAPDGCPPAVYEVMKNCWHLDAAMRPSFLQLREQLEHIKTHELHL
Description: as §1, §2

[5] = biological target: FGF-R2 (Homo sapiens, UniProt P21802); assay: in vitro kinase assay; assay type: biochemical
FGF-R2, sequence (P21802 22-821): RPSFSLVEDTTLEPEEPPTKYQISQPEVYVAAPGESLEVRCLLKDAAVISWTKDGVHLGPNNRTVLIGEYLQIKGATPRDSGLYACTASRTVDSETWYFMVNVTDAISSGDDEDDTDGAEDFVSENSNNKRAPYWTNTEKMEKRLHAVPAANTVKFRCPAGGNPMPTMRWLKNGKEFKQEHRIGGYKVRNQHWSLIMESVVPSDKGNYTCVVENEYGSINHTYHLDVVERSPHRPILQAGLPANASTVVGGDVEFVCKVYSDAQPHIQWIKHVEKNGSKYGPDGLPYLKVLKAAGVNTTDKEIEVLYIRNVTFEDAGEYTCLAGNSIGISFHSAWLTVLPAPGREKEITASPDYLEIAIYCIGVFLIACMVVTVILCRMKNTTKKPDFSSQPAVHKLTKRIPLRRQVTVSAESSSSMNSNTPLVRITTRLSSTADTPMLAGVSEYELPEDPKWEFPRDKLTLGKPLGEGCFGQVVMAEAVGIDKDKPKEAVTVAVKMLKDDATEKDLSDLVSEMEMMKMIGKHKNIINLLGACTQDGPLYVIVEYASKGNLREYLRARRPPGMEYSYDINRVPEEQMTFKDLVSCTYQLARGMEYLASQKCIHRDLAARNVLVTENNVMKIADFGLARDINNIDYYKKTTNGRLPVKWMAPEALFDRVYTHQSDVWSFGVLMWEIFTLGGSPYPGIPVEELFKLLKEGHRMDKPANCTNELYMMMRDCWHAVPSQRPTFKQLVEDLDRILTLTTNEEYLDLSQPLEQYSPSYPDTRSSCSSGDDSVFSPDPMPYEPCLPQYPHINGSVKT
Description: as §1, §2

[6] = biological target: MET (Homo sapiens, UniProt P08581); assay: in vitro kinase assay; assay type: biochemical
Description: as §1, §2

[7] = biological target: MUSK (Homo sapiens, UniProt O15146); assay: in vitro kinase assay; assay type: biochemical
Description: as §1, §2

[8] = biological target: NLK (Homo sapiens, UniProt Q9UBE8); assay: in vitro kinase assay; assay type: biochemical
NLK, sequence (Q9UBE8 whole entry): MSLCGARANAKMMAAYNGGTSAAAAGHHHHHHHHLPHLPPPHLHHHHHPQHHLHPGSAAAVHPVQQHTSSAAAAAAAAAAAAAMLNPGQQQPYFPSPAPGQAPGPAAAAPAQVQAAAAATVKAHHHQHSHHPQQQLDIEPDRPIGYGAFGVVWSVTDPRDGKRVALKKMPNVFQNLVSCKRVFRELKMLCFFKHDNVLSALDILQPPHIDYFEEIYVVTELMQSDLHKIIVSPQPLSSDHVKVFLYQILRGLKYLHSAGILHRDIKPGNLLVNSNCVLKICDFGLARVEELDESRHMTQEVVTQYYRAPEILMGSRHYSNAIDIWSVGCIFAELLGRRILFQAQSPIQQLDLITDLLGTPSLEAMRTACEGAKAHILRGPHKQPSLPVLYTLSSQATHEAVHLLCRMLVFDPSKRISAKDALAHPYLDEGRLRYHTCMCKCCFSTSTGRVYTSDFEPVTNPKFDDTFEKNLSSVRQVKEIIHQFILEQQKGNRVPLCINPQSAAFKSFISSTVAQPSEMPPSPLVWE
Description: as §1, §2

[9] = biological target: PAK4 (Homo sapiens, UniProt O96013); assay: in vitro kinase assay; assay type: biochemical
PAK4, sequence (O96013 whole entry): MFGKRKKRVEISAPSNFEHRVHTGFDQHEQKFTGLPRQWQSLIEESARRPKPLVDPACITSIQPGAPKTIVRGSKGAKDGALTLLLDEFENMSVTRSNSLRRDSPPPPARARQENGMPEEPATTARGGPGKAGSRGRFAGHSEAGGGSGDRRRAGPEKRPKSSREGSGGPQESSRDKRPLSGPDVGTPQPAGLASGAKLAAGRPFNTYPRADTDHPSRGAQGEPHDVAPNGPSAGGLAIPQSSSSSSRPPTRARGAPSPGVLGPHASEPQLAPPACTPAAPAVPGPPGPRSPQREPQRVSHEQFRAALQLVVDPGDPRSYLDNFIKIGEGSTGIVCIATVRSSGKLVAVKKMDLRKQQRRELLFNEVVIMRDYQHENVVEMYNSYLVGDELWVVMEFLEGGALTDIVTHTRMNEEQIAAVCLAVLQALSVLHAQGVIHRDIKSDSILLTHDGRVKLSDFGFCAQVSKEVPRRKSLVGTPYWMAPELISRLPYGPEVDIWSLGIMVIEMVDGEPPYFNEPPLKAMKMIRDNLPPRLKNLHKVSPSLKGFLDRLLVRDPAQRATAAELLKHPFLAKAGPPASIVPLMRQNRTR
Description: as §1, §2

[10] = biological target: PAK7 (Homo sapiens, UniProt Q9P286); assay: in vitro kinase assay; assay type: biochemical
Description: as §1, §2

[11] = biological target: PKC-alpha (Homo sapiens, UniProt P17252); assay: in vitro kinase assay; assay type: biochemical
Description: as §1, §2

[12] = biological target: PKC-beta1 (Homo sapiens, UniProt P05771); assay: in vitro kinase assay; assay type: biochemical
Description: as §1, §2

[13] = biological target: PKC-gamma (Homo sapiens, UniProt P05129); assay: in vitro kinase assay; assay type: biochemical
Description: as §1, §2

[14] = biological target: PLK1 (Homo sapiens, UniProt P53350); assay: in vitro kinase assay; assay type: biochemical
PLK1, sequence (P53350 whole entry): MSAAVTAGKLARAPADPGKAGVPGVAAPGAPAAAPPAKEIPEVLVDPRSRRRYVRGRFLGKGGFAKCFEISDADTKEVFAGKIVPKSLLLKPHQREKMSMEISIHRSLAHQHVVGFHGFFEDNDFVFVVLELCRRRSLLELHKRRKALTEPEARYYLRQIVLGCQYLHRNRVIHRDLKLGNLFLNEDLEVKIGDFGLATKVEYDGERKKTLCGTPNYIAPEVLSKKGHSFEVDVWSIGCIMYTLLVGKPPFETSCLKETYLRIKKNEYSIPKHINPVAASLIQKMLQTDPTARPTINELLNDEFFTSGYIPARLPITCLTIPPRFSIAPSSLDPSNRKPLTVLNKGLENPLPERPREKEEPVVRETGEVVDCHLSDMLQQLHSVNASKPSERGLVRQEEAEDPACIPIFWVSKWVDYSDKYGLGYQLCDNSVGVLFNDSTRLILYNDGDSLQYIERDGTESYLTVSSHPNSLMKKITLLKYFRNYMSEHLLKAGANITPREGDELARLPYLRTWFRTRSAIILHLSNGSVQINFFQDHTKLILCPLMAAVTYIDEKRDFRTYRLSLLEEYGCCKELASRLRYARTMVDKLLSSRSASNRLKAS
Description: as §1, §2

[15] = biological target: TGFB-R1 (Homo sapiens, UniProt P36897); assay: in vitro kinase assay; assay type: biochemical
Description: as §1, §2

[16] = biological target: TRK-C (Homo sapiens, UniProt Q16288); assay: in vitro kinase assay; assay type: biochemical
TRK-C, sequence (Q16288 32-839): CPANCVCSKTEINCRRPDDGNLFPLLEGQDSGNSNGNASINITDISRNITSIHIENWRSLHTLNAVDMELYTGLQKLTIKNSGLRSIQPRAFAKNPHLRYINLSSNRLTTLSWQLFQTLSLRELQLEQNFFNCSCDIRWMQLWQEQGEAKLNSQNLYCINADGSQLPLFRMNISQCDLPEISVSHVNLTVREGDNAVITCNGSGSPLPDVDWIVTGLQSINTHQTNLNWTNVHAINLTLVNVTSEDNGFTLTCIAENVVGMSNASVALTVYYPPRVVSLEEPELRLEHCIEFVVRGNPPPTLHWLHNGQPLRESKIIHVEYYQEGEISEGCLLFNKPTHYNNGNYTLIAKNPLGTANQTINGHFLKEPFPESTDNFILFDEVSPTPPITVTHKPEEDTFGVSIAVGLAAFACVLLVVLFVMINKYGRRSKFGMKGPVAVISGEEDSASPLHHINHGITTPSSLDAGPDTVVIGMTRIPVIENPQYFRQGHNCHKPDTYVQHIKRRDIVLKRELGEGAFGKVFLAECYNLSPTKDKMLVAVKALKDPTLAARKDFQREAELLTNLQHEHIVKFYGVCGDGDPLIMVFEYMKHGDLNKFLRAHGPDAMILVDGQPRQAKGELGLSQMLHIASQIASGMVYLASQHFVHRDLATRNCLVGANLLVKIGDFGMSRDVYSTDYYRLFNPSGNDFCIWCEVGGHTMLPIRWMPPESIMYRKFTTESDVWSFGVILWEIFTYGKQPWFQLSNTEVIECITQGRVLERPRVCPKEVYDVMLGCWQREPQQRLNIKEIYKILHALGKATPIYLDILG
Description: as §1, §2

[17] = biological target: VRK1 (Homo sapiens, UniProt Q99986); assay: in vitro kinase assay; assay type: biochemical
Description: as §1, §2

[18] = system: panel of 210 kinases representative of the human kinome; assay: in vitro kinase panel; assay type: biochemical; settings: 25 kinases selected for IC50, in vitro assays
Description: as §1, §2

[19] = system: U87; assay: cell viability assay; assay type: cell-based, human; settings: U87 glioblastoma, 72 h, with respect to untreated control cells
[20] = system: Hut; assay: cell viability assay; assay type: cell-based, human; settings: Hut T-cell lymphoma, 72 h, with respect to untreated control cells
[21] = system: Karpas-45; assay: cell viability assay; assay type: cell-based, human; settings: Karpas-45 T-cell lymphoma, 72 h, with respect to untreated control cells
[22] = system: JVM-2; assay: cell viability assay; assay type: cell-based, human; settings: JVM-2 B-cell lymphoma (MCL), 48 h, with respect to untreated control cells
[23] = system: 786-O (Renal); assay: NCI60 panel IC50; assay type: cell-based, human
Description: (§3) On the other hand, the values of IC50 were determined in the panel of NCl60 cell lines for compound 10.
(§4) A total of 2 independent experiments were carried out with assays in triplicate for the compound and cell line. All those assays where an IC50 value was not reached in the highest concentration of 1E-05 M are represented by “>1E-05”. In these cases, the standard deviation cannot be calculated and for that reason it is calculated as “-”.

[24] = system: HCT-15 (Colon); assay: NCI60 panel IC50; assay type: cell-based, human
Description: as §3, §4

[25] = system: HT-29 (Colon); assay: NCI60 panel IC50; assay type: cell-based, human
Description: as §3, §4

[26] = system: LOX-IMVI (Melanoma); assay: NCI60 panel IC50; assay type: cell-based, human
Description: as §3, §4

[27] = system: NCI-H522 (Lung); assay: NCI60 panel IC50; assay type: cell-based, human; settings: lung NCl-H522
Description: as §3, §4

[28] = system: OVCAR-4 (Ovarian); assay: NCI60 panel IC50; assay type: cell-based, human
Description: as §3, §4

[29] = system: OVCAR-5 (Ovarian); assay: NCI60 panel IC50; assay type: cell-based, human
Description: as §3, §4

[30] = system: OVCAR-8 (Ovarian); assay: NCI60 panel IC50; assay type: cell-based, human
Description: as §3, §4

[31] = system: SK-MEL-28 (Melanoma); assay: NCI60 panel IC50; assay type: cell-based, human
Description: as §3, §4

CDK5/p25NCK, sequence (Q00535 whole entry): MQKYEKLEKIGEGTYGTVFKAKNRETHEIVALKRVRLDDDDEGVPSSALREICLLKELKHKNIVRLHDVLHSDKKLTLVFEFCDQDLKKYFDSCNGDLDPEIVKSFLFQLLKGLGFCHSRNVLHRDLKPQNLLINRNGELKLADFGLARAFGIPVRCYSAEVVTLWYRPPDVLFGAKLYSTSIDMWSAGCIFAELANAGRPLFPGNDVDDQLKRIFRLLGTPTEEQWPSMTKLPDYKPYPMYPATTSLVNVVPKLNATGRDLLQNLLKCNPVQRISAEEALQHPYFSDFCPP
CDK5/p25NCK, sequence (Q15078 99-307 partner limits assumed): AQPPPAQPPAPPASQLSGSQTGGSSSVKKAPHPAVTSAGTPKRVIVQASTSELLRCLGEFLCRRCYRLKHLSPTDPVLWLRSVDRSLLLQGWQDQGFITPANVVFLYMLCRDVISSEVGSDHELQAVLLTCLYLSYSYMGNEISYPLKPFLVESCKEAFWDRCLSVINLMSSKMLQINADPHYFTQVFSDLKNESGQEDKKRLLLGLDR

`CN1CCCNc2c(c(=O)c2=O)NCCCN(C)CCCNc2c(c(=O)c2=O)NCCCN(C)CCCNc2c(c(=O)c2=O)NCCCN(C)CCCNc2c(c(=O)c2=O)NCCCN(C)CCCNc2c(c(=O)c2=O)NCCC1` [Compound 10] was tested, and the “inhibition of kinase cdk5” value ([1]; in vitro kinase assay) was 80%, the IC50 ([1]; kinase CDK5/p25NCK, in vitro) was 9.2 µM and the IC50 [2] was 28 µM. For the same molecule, the IC50 [3] was 1.4 µM, the IC50 [4] was 13 µM and 7.2 µM and the IC50 [5] was 5.4 µM. It also gave an IC50 [6] of 3.7 µM, an IC50 [7] of 1.5 µM and an IC50 [8] of 4.3 µM. The IC50 [9] was 4.3 µM, the IC50 [10] was 4.9 µM and the IC50 [11] was 2.3 µM. The IC50 [12] was 7.6 µM, the IC50 [13] was 5.8 µM and 4.9 µM and the IC50 [14] was 26 µM. For the same molecule, the IC50 [15] was 3.3 µM, the IC50 [16] was 7.2 µM and 6.6 µM and the IC50 [17] was 2.4 µM. The “inhibition of the 25 most sensitive kinases” value [18] was “more than 80%”, the “% Cell viability” value [19] was 25% and the “% Cell viability” value [20] was 60%. For the same molecule, the “% Cell viability” value [21] was 13%, the “% Cell viability” value [22] was 24% and the IC50 ([23]; Homo sapiens, 786-0, 786-O (Renal), NCI60 panel, highest concentration 1E-05 M) was over 10 µM. The “sensitivity of the line to the tested compound” value (“sensitivity of the line” below) ([23]; renal 786-O) was “resistant”, the IC50 ([24]; Homo sapiens, HCT-15 (Colon), NCI60 panel, highest concentration 1E-05 M) was over 10 µM and the “sensitivity of the line” value ([24]; colon HCTI5) was “resistant”. For the same molecule, the IC50 ([25]; Homo sapiens, HT-29 (Colon), NCI60 panel, highest concentration 1E-05 M) was over 10 µM, the “sensitivity of the line” value ([25]; colon HT-29) was “resistant” and the IC50 ([26]; Homo sapiens, LOX-IMVI (Melanoma), NCI60 panel, highest concentration 1E-05 M) was over 10 µM. For the same molecule, the “sensitivity of the line” value ([26]; melanoma LOX-IMVI) was “resistant”, the “sensitivity of the line” value [27] was “resistant” and the IC50 ([28]; Homo sapiens, OVCAR-4 (Ovarian), NCI60 panel, highest concentration 1E-05 M) was over 10 µM. The “sensitivity of the line” value ([28]; ovarian OVCAR-4) was “resistant”, the IC50 ([29]; Homo sapiens, OVCAR-5 (Ovarian), NCI60 panel, highest concentration 1E-05 M) was over 10 µM and the “sensitivity of the line” value ([29]; ovarian OVCAR-5) was “resistant”. The IC50 ([30]; Homo sapiens, OVCAR-8 (Ovarian), NCI60 panel, highest concentration 1E-05 M) was over 10 µM, the “sensitivity of the line” value ([30]; ovarian OVCAR-8) was “resistant” and the IC50 ([31]; Homo sapiens, SK-MEL-28 (Melanoma), NCI60 panel, highest concentration 1E-05 M) was over 10 µM. The “sensitivity of the line” value ([31]; melanoma SK-MEL-28) was “resistant”.
